Where “and” joins values, the source holds several entries; their conditions need not be identical. Equal entries are not always repeated. After the bases stand the sugars from the 5' end (letter, count) and the backbone: PS all phosphorothioate, else s phosphorothioate and o phosphodiester by linkage. Methylation of C is not given here. e = 2'-O-(2-methoxyethyl) (MOE); k = constrained ethyl (cEt); d = 2'-deoxy (DNA)
Molecular target: SOD1
Settings: ASO

Sequence: ATTTCCACCTTTGCCCA (sugars e3 k2 d7 k2 e3, PS)
- target mRNA inhibition (HepG2, 3 µM): 63%

Sequence: TTAAAGTGAGGACCTGC (sugars e3 k2 d7 k2 e3, PS)
- target mRNA inhibition (HepG2, 3 µM): 14%

Sequence: CAGACTACATCCAAGGG (sugars e3 k2 d7 k2 e3, PS)
- target mRNA inhibition (HepG2, 3 µM): 53%

Sequence: ACAGTGTTTAATGTTTA (sugars e2 k2 d9 k2 e2, PS)
- target mRNA inhibition (HepG2, 0.1875 µM): 40%
- target mRNA inhibition (HepG2, 0.75 µM): 67%
- target mRNA inhibition (HepG2, 3 µM): 86%
- target mRNA inhibition (HepG2, 4 µM): 79%
- target mRNA inhibition (HepG2, 5 µM): 84%
- target mRNA inhibition (HepG2, 12 µM): 83% and 88%

Sequence: TGGGCGATCCCAATTAC (sugars e3 k2 d7 k2 e3, PS)
- target mRNA inhibition (HepG2, 3 µM): 20%

Sequence: ATGTTTATCAGGATACA (sugars e2 k2 d9 k2 e2, linkages s1 o3 s9 o1 s2)
- target mRNA inhibition (A431, 0.12 µM): 1%
- target mRNA inhibition (A431, 0.6 µM): 4%
- target mRNA inhibition (A431, 3 µM): 21%
- target mRNA inhibition (A431, 15 µM): 29%
- target mRNA inhibition (HepG2, 0.222 µM): 47%
- target mRNA inhibition (HepG2, 0.667 µM): 71%
- target mRNA inhibition (HepG2, 2 µM): 92%
- target mRNA inhibition (HepG2, 6 µM): 82%

Sequence: CTTTTTCATGGACCACC (sugars e3 k2 d7 k2 e3, PS)
- target mRNA inhibition (HepG2, 3 µM): 87%

Sequence: GGCTTGAATGACAAAGA (sugars e2 k2 d9 k2 e2, PS)
- target mRNA inhibition (HepG2, 5 µM): 44%

Sequence: GAGGTCCTGGTTCCGAGGAC (sugars e5 d10 e5, PS)
- target mRNA inhibition (HepG2, 4 µM): 31%

Sequence: AGGATACATTTCTACAGC (sugars e5 d8 e5, linkages s1 o3 s9 o2 s2)
- target mRNA inhibition (A431, 0.12 µM): 42%
- target mRNA inhibition (A431, 0.6 µM): 23%
- target mRNA inhibition (A431, 3 µM): 26%
- target mRNA inhibition (A431, 15 µM): 45%
- target mRNA inhibition (HepG2, 0.222 µM): 9%
- target mRNA inhibition (HepG2, 0.667 µM): 43%
- target mRNA inhibition (HepG2, 2 µM): 65%
- target mRNA inhibition (HepG2, 6 µM): 86%

Sequence: AGTGAGGACCTGCACTG (sugars e3 k2 d7 k2 e3, PS)
- target mRNA inhibition (HepG2, 3 µM): 21%

Sequence: ACCATCTTTGTCAGCAGTCA (sugars e5 d10 e5, PS)
- target mRNA inhibition (HepG2, 5 µM): 41% and 30%

Sequence: TTGCCCAAGTCATCTGC (sugars e3 k2 d7 k2 e3, PS)
- target mRNA inhibition (HepG2, 3 µM): 92%

Sequence: CCGTGTTTTCTGGATAGAGG (sugars e5 d10 e5, PS)
- target mRNA inhibition (HepG2, 5 µM): 44% and 37%

Sequence: CTACGACGCAAACCAGCACC (sugars e5 d10 e5, PS)
- target mRNA inhibition (HepG2, 4 µM): 19%

Sequence: GATTAAAGTGAGGACCT (sugars e3 k2 d7 k2 e3, PS)
- target mRNA inhibition (HepG2, 3 µM): 8%

Sequence: CCCAATTACACCACAAG (sugars e3 k2 d7 k2 e3, PS)
- target mRNA inhibition (HepG2, 3 µM): 29%

Sequence: TCCAAGTGATCATAAAT (sugars e2 k2 d9 k2 e2, PS)
- target mRNA inhibition (HepG2, 5 µM): 39%

Sequence: GATCCCAATTACACCAC (sugars e3 k2 d7 k2 e3, PS)
- target mRNA inhibition (HepG2, 3 µM): 3%

Sequence: GGATACATTTCTACAGC (sugars e4 d9 k2 e2, linkages s1 o3 s9 o1 s2)
- target mRNA inhibition (A431, 0.062 µM): 0%
- target mRNA inhibition (A431, 0.185 µM): 1%
- target mRNA inhibition (A431, 0.556 µM): 13%
- target mRNA inhibition (A431, 1.667 µM): 28%
- target mRNA inhibition (A431, 5 µM): 42%
- target mRNA inhibition (A431, 15 µM): 55%
- target mRNA inhibition (SH-SY5Y, 0.062 µM): 10%
- target mRNA inhibition (SH-SY5Y, 0.185 µM): 3%
- target mRNA inhibition (SH-SY5Y, 0.556 µM): 23%
- target mRNA inhibition (SH-SY5Y, 1.667 µM): 35%
- target mRNA inhibition (SH-SY5Y, 5 µM): 77%
- target mRNA inhibition (SH-SY5Y, 15 µM): 78%

Sequence: CGCCGAGGTCCTGGTTCCGA (sugars e5 d10 e5, PS)
- target mRNA inhibition (HepG2, 4 µM): 24%

Sequence: TCATCTGCTTTTTCATG (sugars e3 k2 d7 k2 e3, PS)
- target mRNA inhibition (HepG2, 3 µM): 71%

Sequence: TACCCATCTGTGATTTA (sugars e2 k2 d8 k2 e3, PS)
- target mRNA inhibition (HepG2, 5 µM): 29%

Sequence: GGATAACAGATGAGTTAAGG (sugars e5 d10 e5, PS)
- target mRNA inhibition (HepG2, 5 µM): 48%

Sequence: GTGTTTAATGTTTATCAG (sugars e5 d8 e5, linkages s1 o3 s9 o2 s2)
- target mRNA inhibition (A431, 0.12 µM): 1%
- target mRNA inhibition (A431, 0.6 µM): 15%
- target mRNA inhibition (A431, 3 µM): 36%
- target mRNA inhibition (A431, 15 µM): 50%
- target mRNA inhibition (HepG2, 0.222 µM): 20%
- target mRNA inhibition (HepG2, 0.667 µM): 43%
- target mRNA inhibition (HepG2, 2 µM): 56%
- target mRNA inhibition (HepG2, 6 µM): 81%

Sequence: GGTCCTGGTTCCGAGGACTG (sugars e5 d10 e5, PS)
- target mRNA inhibition (HepG2, 4 µM): 14%

Sequence: TGCCATACAGGGTTTTT (sugars e3 k2 d7 k2 e3, PS)
- target mRNA inhibition (HepG2, 3 µM): 9%

Sequence: TGAATTTGGATTCTTTTAAT (sugars e5 d10 e5, PS)
- target mRNA inhibition (HepG2, 5 µM): 0%

Sequence: TCTCTTCATCCTTTGGC (sugars e3 k2 d7 k2 e3, PS)
- target mRNA inhibition (HepG2, 3 µM): 14%

Sequence: CCACCAGTGTGCGGCCAATG (sugars e5 d10 e5, PS)
- target mRNA inhibition (HepG2, 5 µM): 22%

Sequence: CTGCACTGGTACAGCCT (sugars e3 k2 d7 k2 e3, PS)
- target mRNA inhibition (HepG2, 3 µM): 3%

Sequence: TACCCATCTGTGATTTAAGT (sugars e5 d10 e5, PS)
- target mRNA inhibition (HepG2, 5 µM): 50%

Sequence: TACAGGTCATTGAAACA (sugars e2 k2 d8 k2 e3, PS)
- target mRNA inhibition (HepG2, 5 µM): 26%

Reference: the OligoGym collection
